According to article PMC6993238, “Development of a new class of PSMA radioligands comprising ibuprofen as an albumin-binding entity” (Theranostics, 2020):

Assays:
[1] = Radiolytic stability at high activity concentration (HPLC); format: physicochemical; settings: 24 h, saline with L-ascorbic acid (3 mg), 250 MBq/500 μL, room temperature
Method: The radiolytic stability of the PSMA radioligands (50 MBq/nmol) was determined at a high activity concentration (250 MBq/500 μL saline) over a period of 24 h in the absence or presence of L-ascorbic acid (3 mg). The samples were kept at room temperature and aliquots were taken 1 h, 4 h and 24 h after labeling in order to determine the amount of intact radioligand using HPLC as previously reported (Supplementary Material), [29].
Methods: Radioly tic stability of each PSMA radioligand was assessed over a period of 24 h. For this purpose, Ibu-PSMA, Ibu-Dα-PSMA, Ibu-N-PSMA and Ibu-DAB-PSMA were labeled with 177Lu in a volume of 120 µL at a molar activity of 50 MBq/nmol. After quality control using HPLC (t = 0, radiochemical purity ≥ 96%), the labeling solutions were diluted with saline to 250 MBq/500 µL and radioligand integrity was determined for each radioligand with and without addition of L-ascorbic acid (3 mg). The radioligand dilutions were incubated at room temperature and radioligand degradation was determined by HPLC after 1 h, 4 h and 24 h incubation time as previously reported. The HPLC chromatograms were analyzed by integration of the peaks representing the radiolabeled product, the released 177Lu as well as degradation products of unknown structure (Figure S3). […]

mouse plasma proteins = assay: Ultrafiltration assay, binding to mouse plasma proteins; format: in vitro ADME; settings: 37 °C, 30 min
Method: (§1) In short, the PSMA ligands were labeled with ^177Lu at a molar activity of 50 MBq/nmol, diluted in PBS (pH 7.4) to an activity concentration of 10 MBq/500 μL and incubated in mouse or human plasma at 37 °C for 30 min. After incubation, each sample was loaded on a centifree ultrafiltration device (4104 centrifugal filter units; Millipore, 30000 Da nominal molecular weight limit, methylcellulose micropartition membranes) and centrifuged at 2000 rpm for 40 min at 20 °C to allow the separation of the unbound and plasma-bound radioligand fractions. Samples from the loading solution and samples from the filtrate were taken and counted for radioactivity in a γ-counter. The amount of plasma-bound radioligand was calculated as the fraction of radioactivity measured […] relative to the corresponding loading solution (set to 100%). Control experiments were performed with each radioligand by incubation in PBS (pH 7.4) prior to filtration in order to determine the unspecific binding of the radioligands to the filter membrane. The experiments were performed at least three times for each radioligand. A one-way ANOVA with a Tukeys's multiple comparison post-test was used for statistical analysis in GraphPad Prism software (version 7). A p-value of <0.05 was considered statistically significant.

human plasma proteins = assay: Ultrafiltration assay, binding to human plasma proteins; format: in vitro ADME; settings: 37 °C, 30 min
Method: as §1

PSMA = biological target: T1, PSMA (Homo sapiens, UniProt Q04609); assay: Determination of KD values (saturation binding on PC-3 PIP tumor cells); settings: 30 min at 4 °C, 2-PMPA block for non-specific binding
T1 construct: expressed in transfected cells; host or cells: PC-3 PIP (PSMA-transfected subline of human PC-3 prostate cancer cells), provided by Prof; Martin Pomper
Method: The KD values, indicating the PSMA-binding affinity of the radioligands, were determined using PC-3 PIP tumor cells. The cells were seeded in 48-well-plates (8 x 10^4 cells in 500 µL RPMI medium/well) allowing adhesion and growth overnight. During the experiment, well plates were kept on ice. After removal of the supernatant, the cells were washed once with ice-cold PBS (pH 7.4) before addition of different concentrations (1‒2000 nM) of the radiolabeled PSMA ligands (5 MBq/nmol) in ice-cold RPMI medium without supplements. Some of the PC-3 PIP tumor cell samples were co-incubated with 2-phosphonomethyl pentanedioic acid (2-PMPA, 200 μM) to block PSMA enabling the determination of non-specific binding. After incubation of the well-plates for 30 min at 4 °C, the supernatants were removed and the cells washed twice with ice-cold PBS. The cells were lysed (NaOH, 1 M, 600 µL) and transferred to 4 mL tubes for counting the activity in a γ-counter (Wallac Wizard 1480, Perkin Elmer). The KD values were determined by plotting specific binding (total binding minus unspecific binding determined with blocking agent) against the molar concentration of the added radioligands. […] Statistical significance was assessed using a one-way ANOVA with a Tukeys's multiple comparison post-test in GraphPad Prism software (version 7). […]

[2] = test system: non-tumor-bearing athymic BALB/c nude mice; assay: In vivo excretion, whole-body activity measurement; design: species or system mouse; settings: 4 h p.i.; activity right after injection = 100%
Method: 14. Determination of the in vivo excretion of the radioligands
Methods: In order to determine the retention and excretion of each radioligand, non-tumor-bearing athymic BALB/c nude mice were injected with each radioligand (n = 2−3; per radioligand). The mice were measured for radioactivity immediately after injection and at several time points after injection up to 56 h p.i. (Figure S8). The PSMA ligands were, therefore, labeled at a molar activity of 25 MBq/nmol and diluted in saline containing 0.05% bovine serum albumin (BSA). Mice were intravenously injected with the respective radioligand (25 MBq, 1 nmol, 100 µL) and – after e mptying the urinary bladder – measured in a dose calibrator immediately (t = 0) and at various time points after injection up to 56 h p.i..
The activity measured right after injection was set as 100%. The data points present the average of three mice per radioligand ± standard deviation (SD). […]
to the albumin-binding properties of the incorporated ibuprofen. The ibuprofen-bearing radioligands […]
p-tolyl moiety as stronger albumin binder. […]
excretion patterns for the single radioligands, which was manifested most prominently between 1 h and 4 h p.i. At all measured time points, retention was highest for the radioligand without additional linker entity, 177Lu-Ibu-PSMA. […]
Figure S8. […] The activity measured right after injection was set as 100%. […]

[3] = n-octanol/PBS; cited from earlier work
[4] = test system: PC-3 PIP/flu tumor-bearing mice; design: method as in Benešová et al. 2018 [1]; AUC value PC-3 PIP tumor / AUC value Blood / AUC value Kidneys / AUC value Liver / AUC value Salivary glands: concentration or dose not given beside the values; settings: previously published, ref Benešová et al. 2018 [1], cited from earlier work

T1 sequence (Q04609 whole entry): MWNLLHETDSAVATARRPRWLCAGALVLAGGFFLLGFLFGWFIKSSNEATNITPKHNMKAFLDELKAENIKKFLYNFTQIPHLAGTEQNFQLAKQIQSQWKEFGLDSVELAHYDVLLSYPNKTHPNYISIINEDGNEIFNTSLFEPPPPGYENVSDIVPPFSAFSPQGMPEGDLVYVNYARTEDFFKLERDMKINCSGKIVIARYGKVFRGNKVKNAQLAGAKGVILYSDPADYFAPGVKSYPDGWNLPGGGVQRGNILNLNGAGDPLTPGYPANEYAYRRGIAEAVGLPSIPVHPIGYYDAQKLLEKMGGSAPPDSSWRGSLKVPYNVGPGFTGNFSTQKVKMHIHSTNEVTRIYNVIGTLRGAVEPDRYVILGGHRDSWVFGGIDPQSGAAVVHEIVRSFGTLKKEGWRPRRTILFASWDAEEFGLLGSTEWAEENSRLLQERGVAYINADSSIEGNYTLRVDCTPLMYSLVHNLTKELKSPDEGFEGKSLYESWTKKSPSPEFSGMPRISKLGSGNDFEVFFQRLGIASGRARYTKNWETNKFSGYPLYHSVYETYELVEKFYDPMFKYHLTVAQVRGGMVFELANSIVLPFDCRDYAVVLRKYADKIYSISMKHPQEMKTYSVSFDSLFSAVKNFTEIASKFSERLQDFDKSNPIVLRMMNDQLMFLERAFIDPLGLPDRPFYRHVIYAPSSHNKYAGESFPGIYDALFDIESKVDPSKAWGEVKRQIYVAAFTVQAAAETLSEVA

SMILES: O=C([O-])CN1CCN(CC(=O)[O-])CCN(CC(=O)NCC2CCC(C(=O)N[C@@H](Cc3ccc4ccccc4c3)C(=O)NCCCC[C@H](NC(=O)N[C@@H](CCC(=O)O)C(=O)O)C(=O)O)CC2)CCN(CC(=O)[O-])CC1.[177Lu+3] (stereo partly drawn) [^177Lu-PSMA-617]
- intact radioligand [1]: over 91%
- binding to mouse plasma proteins (bound fraction) (mouse plasma proteins): 6.0 ± 2%
- binding to human plasma proteins (bound fraction) (human plasma proteins): 59 ± 1%
- Kd (PSMA): 13 ± 1 nM
- body retention of activity [2]: 3.2%
- logD value [3]: -4.4 ± 0.2
- AUC value Blood ([4]; non-decay-corrected data): 52 ± 2 % IA/g*h
- AUC value Kidneys ([4]; non-decay-corrected data): 99 ± 11 % IA/g*h
- AUC value Liver ([4]; non-decay-corrected data): 6.2 ± 1.6 % IA/g*h
- AUC value PC-3 PIP tumor ([4]; non-decay-corrected data): 3691 ± 156 % IA/g*h
- AUC value Salivary glands ([4]; non-decay-corrected data): 0.5 ± 0.2 % IA/g*h
- Ratio of AUC values AUCTu-to-AUCBl ([4]; tumor-to-blood): 71 ± 6
- Ratio of AUC values AUCTu-to-AUCKi ([4]; tumor-to-kidney): 37 ± 6
- Ratio of AUC values AUCTu-to-AUCLi ([4]; tumor-to-liver): 592 ± 179
- Ratio of AUC values AUCTu-to-AUCSG ([4]; tumor-to-salivary gland): 7382 ± 3265
